The subject of this assay is CD2F1 mice, intracerebral L1210 leukemia, survival T/C. As to the kind of experiment: NCI In Vivo Anticancer Drug Screen. Data for tumor model L1210 Leukemia (intracerebral) in CD2F1 (CDF1) mice. The settings on record: higher = longer survival. How it is done:
The antitumor activity of compounds was measured in mice bearing transplantable tumors. Survival or tumor size were measured and the results are expressed as the measurement made in the treated group (T) divided by the measurement made in the vehicle treated control group (C). The tumor model used in this assay is L1210 Leukemia (intracerebral) in CD2F1 (CDF1) mice

The mark [1] stands for this setting: endpoint: median survival time, dose: 16.0 mg/kg/injection, schedule: Q01DX005 (ip), vehicle: saline.
Where [2] appears, read: endpoint: median survival time, dose: 32.0 mg/kg/injection, schedule: Q01DX005 (ip), vehicle: saline.
Setting [3] is: endpoint: median survival time, dose: 40.0 mg/kg/injection, schedule: Q01DX001 (ip), vehicle: saline.
Where [4] appears, read: endpoint: median survival time, dose: 80.0 mg/kg/injection, schedule: Q01DX001 (ip), vehicle: saline.
Where [5] appears, read: endpoint: median survival time, dose: 160.0 mg/kg/injection, schedule: Q01DX001 (ip), vehicle: saline.
Setting [6] is: endpoint: median survival time, dose: 320.0 mg/kg/injection, schedule: Q01DX001 (ip), vehicle: saline.
[7] abbreviates: endpoint: mean survival time, dose: 4.0 mg/kg/injection, schedule: Q01DX009 (ip), vehicle: saline.

Where “and” joins values, the source holds several entries; their conditions need not be identical. Identical values can stand only once. Toxic doses and inconclusive results are not listed.

For the molecule `CC(=O)NNC(=O)c1ccccn1`, the T/C (endpoint: median survival time, dose: 100.0 mg/kg/injection, schedule: Q01DX005 (ip), vehicle: Klucel (hydroxypropylcellulose) (HPC)) was 103 % of control and the T/C (endpoint: median survival time, dose: 200.0 mg/kg/injection, schedule: Q01DX005 (ip), vehicle: Klucel (hydroxypropylcellulose) (HPC)) was 105 % of control.

Consider `CN(Cc1cnc2nc(N)nc(N)c2n1)c1c(Cl)cc(C(=O)NC(CCC(=O)O)C(=O)O)cc1Cl` (stereo not given), for which the T/C was 101 % of control and 111 % of control under setting [1]; 111 % of control under setting [2]; 119 % of control and 120 % of control (endpoint: median survival time, dose: 64.0 mg/kg/injection, schedule: Q01DX005 (ip), vehicle: saline).

For the molecule `CC(=O)c1ccccc1N=NN(C)C`, the T/C runs as follows: (endpoint: mean survival time, dose: 10.0 mg/kg/injection, schedule: Q01DX007 (ip), vehicle: DMSO) 91 % of control; (endpoint: mean survival time, dose: 20.0 mg/kg/injection, schedule: Q01DX007 (ip), vehicle: DMSO) 91 % of control; (endpoint: mean survival time, dose: 40.0 mg/kg/injection, schedule: Q01DX007 (ip), vehicle: DMSO) 93 % of control; (endpoint: mean survival time, dose: 80.0 mg/kg/injection, schedule: Q01DX007 (ip), vehicle: DMSO) 103 % of control; (endpoint: mean survival time, dose: 120.0 mg/kg/injection, schedule: Q01DX007 (ip), vehicle: DMSO) 100 % of control.

In the case of `O=P1(N(CCCl)CCCl)NCCCO1` (stereo not given), the T/C reads like this: under setting [3], 100 % of control; under setting [4], 104 % of control; under setting [5], 112 % of control; under setting [6], 105 % of control.

Regarding `O=NN(CCCl)C(=O)NC1C(O)C(O)C(O)C(O)C1O` (stereo not given), the T/C by setting is: (endpoint: mean survival time, dose: 9.0 mg/kg/injection, schedule: Q01DX001 (ip), vehicle: saline) 110 % of control; (endpoint: mean survival time, dose: 13.0 mg/kg/injection, schedule: Q01DX001 (ip), vehicle: saline) 117 % of control; (endpoint: mean survival time, dose: 44.0 mg/kg/injection, schedule: Q01DX001 (ip), vehicle: saline) 115 % of control; (endpoint: mean survival time, dose: 67.0 mg/kg/injection, schedule: Q01DX001 (ip), vehicle: saline) 95 % of control.

For `CN(C)CC(=O)c1ccc(O)c(O)c1`, the T/C is, setting by setting: (endpoint: median survival time, dose: 100.0 mg/kg/injection, schedule: Q01DX005 (ip), vehicle: saline) 95 % of control and 107 % of control; (endpoint: median survival time, dose: 200.0 mg/kg/injection, schedule: Q01DX005 (ip), vehicle: saline) 109 % of control; (endpoint: median survival time, dose: 400.0 mg/kg/injection, schedule: Q01DX005 (ip), vehicle: saline) 290 % of control and 103 % of control; (endpoint: median survival time, dose: 800.0 mg/kg/injection, schedule: Q01DX005 (ip), vehicle: saline) 88 % of control and 110 % of control.

As for `CN(N=O)C(=O)Nc1c[nH]c(=O)[nH]c1=O`, the T/C is, setting by setting: (endpoint: median survival time, dose: 8.0 mg/kg/injection, schedule: Q01DX005 (ip), vehicle: saline with Tween-80) 100 % of control; (endpoint: median survival time, dose: 16.0 mg/kg/injection, schedule: Q01DX005 (ip), vehicle: saline with Tween-80) 103 % of control; (endpoint: median survival time, dose: 32.0 mg/kg/injection, schedule: Q01DX005 (ip), vehicle: saline with Tween-80) 100 % of control; (endpoint: median survival time, dose: 64.0 mg/kg/injection, schedule: Q01DX005 (ip), vehicle: saline with Tween-80) 110 % of control; (endpoint: median survival time, dose: 128.0 mg/kg/injection, schedule: Q01DX005 (ip), vehicle: saline with Tween-80) 119 % of control.

Regarding `O=P1(NCCCl)OCCCN1CCCl` (stereo not given), the T/C was 97 % of control under setting [3], 102 % of control under setting [4], 105 % of control under setting [5] and 113 % of control under setting [6].

Consider `C#C[C@]1(O)CC[C@H]2[C@@H]3CCc4cc(O)ccc4[C@H]3CC[C@@]21C`, for which the T/C reads like this: (endpoint: median survival time, dose: 8.0 mg/kg/injection, schedule: Q01DX009 (ip), vehicle: saline with Tween-80) 100 % of control and 104 % of control; (endpoint: median survival time, dose: 16.0 mg/kg/injection, schedule: Q01DX009 (ip), vehicle: saline with Tween-80) 96 % of control and 98 % of control; (endpoint: median survival time, dose: 32.0 mg/kg/injection, schedule: Q01DX009 (ip), vehicle: saline with Tween-80) 97 % of control and 101 % of control; (endpoint: median survival time, dose: 64.0 mg/kg/injection, schedule: Q01DX009 (ip), vehicle: saline with Tween-80) 100 % of control and 101 % of control; (endpoint: median survival time, dose: 128.0 mg/kg/injection, schedule: Q01DX009 (ip), vehicle: saline with Tween-80) 93 % of control and 101 % of control; (endpoint: median survival time, dose: 256.0 mg/kg/injection, schedule: Q01DX009 (ip), vehicle: saline with Tween-80) 86 % of control and 101 % of control.

Take `CC1CC(C)(O)CC(C(O)CC2CC(=O)NC(=O)C2)C1=O` (stereo not given): the T/C by setting is: (endpoint: mean survival time, dose: 0.02 mg/kg/injection, schedule: Q01DX009 (ip), vehicle: saline) 97 % of control; (endpoint: mean survival time, dose: 0.04 mg/kg/injection, schedule: Q01DX009 (ip), vehicle: saline) 92 % of control; (endpoint: mean survival time, dose: 0.08 mg/kg/injection, schedule: Q01DX009 (ip), vehicle: saline) 110 % of control; (endpoint: mean survival time, dose: 0.16 mg/kg/injection, schedule: Q01DX009 (ip), vehicle: saline) 100 % of control; (endpoint: mean survival time, dose: 0.32 mg/kg/injection, schedule: Q01DX009 (ip), vehicle: saline) 106 % of control.

Consider `CN(N=O)C(N)=O`, for which the T/C reads like this: (endpoint: median survival time, dose: 0.5 mg/kg/injection, schedule: Q01DX009 (ip), vehicle: saline + alcohol) 98 % of control; (endpoint: median survival time, dose: 1.0 mg/kg/injection, schedule: Q01DX009 (ip), vehicle: saline + alcohol) 105 % of control; (endpoint: median survival time, dose: 2.0 mg/kg/injection, schedule: Q01DX009 (ip), vehicle: saline + alcohol) 105 % of control; (endpoint: median survival time, dose: 2.5 mg/kg/injection, schedule: Q01DX001 (ip), vehicle: saline) 89 % of control; (endpoint: median survival time, dose: 4.0 mg/kg/injection, schedule: Q01DX009 (ip), vehicle: saline + alcohol) 114 % of control; (endpoint: median survival time, dose: 5.0 mg/kg/injection, schedule: Q01DX001 (ip), vehicle: saline) 92 % of control. For the same molecule, the T/C (endpoint: median survival time, dose: 10.0 mg/kg/injection, schedule: Q01DX001 (ip), vehicle: saline + alcohol) was 102 % of control; the T/C (endpoint: median survival time, dose: 10.0 mg/kg/injection, schedule: Q01DX001 (ip), vehicle: saline) is 94 % of control; the T/C (endpoint: median survival time, dose: 16.0 mg/kg/injection, schedule: Q01DX009 (ip), vehicle: saline + alcohol) is 196 % of control; the T/C (endpoint: median survival time, dose: 20.0 mg/kg/injection, schedule: Q01DX001 (ip), vehicle: saline + alcohol) is 105 % of control; the T/C (endpoint: median survival time, dose: 20.0 mg/kg/injection, schedule: Q01DX001 (ip), vehicle: saline) is 103 % of control; the T/C (endpoint: median survival time, dose: 40.0 mg/kg/injection, schedule: Q01DX001 (ip), vehicle: saline + alcohol) is 107 % of control. The T/C by setting is: under setting [3], 121 % of control; (endpoint: median survival time, dose: 80.0 mg/kg/injection, schedule: Q01DX001 (ip), vehicle: saline + alcohol) 112 % of control; under setting [4], 110 % of control.

For `NC(=O)CNC1=C(N2CC2)C(=O)C(NCC(N)=O)=C(N2CC2)C1=O`, the T/C by setting is: (endpoint: mean survival time, dose: 2.5 mg/kg/injection, schedule: Q01DX009 (ip), vehicle: saline) 101 % of control and 116 % of control; (endpoint: mean survival time, dose: 5.0 mg/kg/injection, schedule: Q01DX009 (ip), vehicle: saline) 110 % of control and 113 % of control; (endpoint: mean survival time, dose: 10.0 mg/kg/injection, schedule: Q01DX009 (ip), vehicle: saline) 105 % of control and 116 % of control; (endpoint: mean survival time, dose: 15.0 mg/kg/injection, schedule: Q01DX009 (ip), vehicle: saline) 101 % of control and 113 % of control.

Consider `CN(CCO)C1=C(N2CC2)C(=O)C(N(C)CCO)=C(N2CC2)C1=O`, for which the T/C (endpoint: mean survival time, dose: 0.5 mg/kg/injection, schedule: Q01DX009 (ip), vehicle: saline) was 106 % of control and 109 % of control; the T/C (endpoint: mean survival time, dose: 1.0 mg/kg/injection, schedule: Q01DX009 (ip), vehicle: saline) was 111 % of control; the T/C under setting [7] is 101 % of control.

On to `F`, for which the T/C is, setting by setting: under setting [1], 100 % of control and 104 % of control; under setting [2], 88 % of control and 105 % of control.

Consider `CC[n+]1ccc(Nc2ccc(NC(=O)c3ccc(Nc4cc[n+](CC)c5ccc(N)cc45)cc3)cc2)cc1`, for which the T/C was 110 % of control (endpoint: mean survival time, dose: 2.0 mg/kg/injection, schedule: Q01DX009 (ip), vehicle: saline) and 111 % of control under setting [7].

As to `Cc1ncc(CO)c(C)c1O`, the T/C is 105 % of control and 106 % of control (endpoint: median survival time, dose: 128.0 mg/kg/injection, schedule: Q01DX005 (ip), vehicle: Klucel (hydroxypropylcellulose) (HPC)); 111 % of control and 114 % of control (endpoint: median survival time, dose: 256.0 mg/kg/injection, schedule: Q01DX005 (ip), vehicle: Klucel (hydroxypropylcellulose) (HPC)).

`CCCN(C)/N=N/c1nc[nH]c1C(N)=O`: the T/C by setting is: (endpoint: median survival time, dose: 4.0 mg/kg/injection, schedule: Q01DX005 (ip), vehicle: suspension in saline) 105 % of control; (endpoint: median survival time, dose: 8.0 mg/kg/injection, schedule: Q01DX005 (ip), vehicle: suspension in saline) 109 % of control; (endpoint: median survival time, dose: 16.0 mg/kg/injection, schedule: Q01DX005 (ip), vehicle: suspension in saline) 112 % of control; (endpoint: median survival time, dose: 32.0 mg/kg/injection, schedule: Q01DX005 (ip), vehicle: suspension in saline) 118 % of control; (endpoint: median survival time, dose: 64.0 mg/kg/injection, schedule: Q01DX005 (ip), vehicle: suspension in saline) 124 % of control.

Values taken from PubChem BioAssay AID260 (DTP/NCI, 2004).
